{"source": "ChEMBL document CHEMBL3046676", "about": "“Baseline susceptibility of Bemisia tabaci (Genn.) biotype B in southern Florida to cyantraniliprole” (2013)", "format_in_all_cases": "functional", "key": {"Bemisia tabaci [1]": {"system": "Bemisia tabaci", "experiment": "Resistance ratio of LC50 for field-collected population of Bemisia tabaci (sweet potato whitefly) biotype B GCC-AM ST (F4-5) adults to LC50 for laboratory strain of Bemisia tabaci (sweet potato whitefly) biotype B adults"}, "Bemisia tabaci [2]": {"system": "Bemisia tabaci", "experiment": "Resistance ratio of LC50 for field-collected population of Bemisia tabaci (sweet potato whitefly) biotype B GCC-AM (p) (F2) adults to LC50 for laboratory strain of Bemisia tabaci (sweet potato whitefly) biotype B adults"}, "Bemisia tabaci [3]": {"system": "Bemisia tabaci", "experiment": "Resistance ratio of LC50 for field-collected population of Bemisia tabaci (sweet potato whitefly) biotype B Cortez #1 (F4) adults to LC50 for laboratory strain of Bemisia tabaci (sweet potato whitefly) biotype B adults"}, "Bemisia tabaci [4]": {"system": "Bemisia tabaci", "experiment": "Insecticidal activity against laboratory strain of Bemisia tabaci (sweet potato whitefly) biotype B adults infested in cotton seedlings cut stem assessed as mortality measured after 5 days by stabilization treatment based systemic uptake bioassay"}, "Bemisia tabaci [5]": {"system": "Bemisia tabaci", "experiment": "Insecticidal activity against field-collected population of Bemisia tabaci (sweet potato whitefly) biotype B GCC-AM ST (F4-5) adults infested in cotton seedlings cut stem assessed as mortality measured after 5 days by stabilization treatment based systemic uptake bioassay"}, "Bemisia tabaci [6]": {"system": "Bemisia tabaci", "experiment": "Insecticidal activity against field-collected population of Bemisia tabaci (sweet potato whitefly) biotype B GCC-AM (p) (F2) adults infested in cotton seedlings cut stem assessed as mortality measured after 5 days by stabilization treatment based systemic uptake bioassay"}, "Bemisia tabaci [7]": {"system": "Bemisia tabaci", "experiment": "Insecticidal activity against field-collected population of Bemisia tabaci (sweet potato whitefly) biotype B Cortez #1 (F4) adults infested in cotton seedlings cut stem assessed as mortality measured after 5 days by stabilization treatment based systemic uptake bioassay"}, "Bemisia tabaci [8]": {"system": "Bemisia tabaci", "experiment": "Insecticidal activity against field-collected population of Bemisia tabaci (sweet potato whitefly) biotype B Devil's garden KAC (F3) eggs in cotton seedlings cut stem assessed as mortality measured after 14 days by stabilization treatment based systemic uptake bioassay"}, "Bemisia tabaci [9]": {"system": "Bemisia tabaci", "experiment": "Insecticidal activity against field-collected population of Bemisia tabaci (sweet potato whitefly) biotype B Homestead #1 (F4) eggs in cotton seedlings cut stem assessed as mortality measured after 14 days by stabilization treatment based systemic uptake bioassay"}, "Bemisia tabaci [10]": {"system": "Bemisia tabaci", "experiment": "Insecticidal activity against field-collected population of Bemisia tabaci (sweet potato whitefly) biotype B GCC-EV-Tom (F4) eggs in cotton seedlings cut stem assessed as mortality measured after 14 days by stabilization treatment based systemic uptake bioassay"}, "Bemisia tabaci [11]": {"system": "Bemisia tabaci", "experiment": "Insecticidal activity against field-collected population of Bemisia tabaci (sweet potato whitefly) biotype B Parrish (F3) eggs in cotton seedlings cut stem assessed as mortality measured after 14 days by stabilization treatment based systemic uptake bioassay"}, "Bemisia tabaci [12]": {"system": "Bemisia tabaci", "experiment": "Insecticidal activity against field-collected population of Bemisia tabaci (sweet potato whitefly) biotype B Myakka (F2) eggs in cotton seedlings cut stem assessed as mortality measured after 14 days by stabilization treatment based systemic uptake bioassay"}, "Bemisia tabaci [13]": {"system": "Bemisia tabaci", "experiment": "Insecticidal activity against field-collected population of Bemisia tabaci (sweet potato whitefly) biotype B Homestead #1 (F2-F3) eggs in cotton seedlings cut stem assessed as mortality measured after 14 days by stabilization treatment based systemic uptake bioassay"}}}
{"smiles": "CNC(=O)c1cc(C#N)cc(C)c1NC(=O)c1cc(Br)nn1-c1ncccc1Cl", "note": "[CYANTRANILIPROLE]", "values": [{"measurement": "RatioLC50", "setting": "Bemisia tabaci [1]", "value": 0.752}, {"measurement": "RatioLC50", "setting": "Bemisia tabaci [2]", "value": 1.207}, {"measurement": "RatioLC50", "setting": "Bemisia tabaci [3]", "value": 1.174}, {"measurement": "LC50", "setting": "Bemisia tabaci [4]", "value": 0.049, "unit": "mgAi/L"}, {"measurement": "LC50", "setting": "Bemisia tabaci [5]", "value": 0.037, "unit": "mgAi/L"}, {"measurement": "LC50", "setting": "Bemisia tabaci [6]", "value": 0.059, "unit": "mgAi/L"}, {"measurement": "LC50", "setting": "Bemisia tabaci [7]", "value": 0.058, "unit": "mgAi/L"}, {"measurement": "LC50", "setting": "Bemisia tabaci [8]", "value": 0.033, "unit": "mgAi/L"}, {"measurement": "LC50", "setting": "Bemisia tabaci [9]", "value": 0.023, "unit": "mgAi/L"}, {"measurement": "LC50", "setting": "Bemisia tabaci [10]", "value": 0.034, "unit": "mgAi/L"}, {"measurement": "LC50", "setting": "Bemisia tabaci [11]", "value": 0.015, "unit": "mgAi/L"}, {"measurement": "LC50", "setting": "Bemisia tabaci [12]", "value": 0.023, "unit": "mgAi/L"}, {"measurement": "LC50", "setting": "Bemisia tabaci [13]", "value": 0.013, "unit": "mgAi/L"}]}
